Measurements published in patent US20240327382A1 (ALMAC DISCOVERY LIMITED, priority 2021, published 2024).
pIC50: −log10 of the molar value.

The compounds below were run against T1, Full-length USP19 (Homo sapiens, UniProt O94966) (assay: USP19 fluorescence polarisation (FP) assay, Ubiquitin-Lys-TAMRA substrate). Conditions: average of at least two duplicate experiments.
T1 construct: Full-length USP19 was purchased from Boston Biochem (E-576); purchased Boston Biochem E-576
T1 sequence (O94966 1-1318): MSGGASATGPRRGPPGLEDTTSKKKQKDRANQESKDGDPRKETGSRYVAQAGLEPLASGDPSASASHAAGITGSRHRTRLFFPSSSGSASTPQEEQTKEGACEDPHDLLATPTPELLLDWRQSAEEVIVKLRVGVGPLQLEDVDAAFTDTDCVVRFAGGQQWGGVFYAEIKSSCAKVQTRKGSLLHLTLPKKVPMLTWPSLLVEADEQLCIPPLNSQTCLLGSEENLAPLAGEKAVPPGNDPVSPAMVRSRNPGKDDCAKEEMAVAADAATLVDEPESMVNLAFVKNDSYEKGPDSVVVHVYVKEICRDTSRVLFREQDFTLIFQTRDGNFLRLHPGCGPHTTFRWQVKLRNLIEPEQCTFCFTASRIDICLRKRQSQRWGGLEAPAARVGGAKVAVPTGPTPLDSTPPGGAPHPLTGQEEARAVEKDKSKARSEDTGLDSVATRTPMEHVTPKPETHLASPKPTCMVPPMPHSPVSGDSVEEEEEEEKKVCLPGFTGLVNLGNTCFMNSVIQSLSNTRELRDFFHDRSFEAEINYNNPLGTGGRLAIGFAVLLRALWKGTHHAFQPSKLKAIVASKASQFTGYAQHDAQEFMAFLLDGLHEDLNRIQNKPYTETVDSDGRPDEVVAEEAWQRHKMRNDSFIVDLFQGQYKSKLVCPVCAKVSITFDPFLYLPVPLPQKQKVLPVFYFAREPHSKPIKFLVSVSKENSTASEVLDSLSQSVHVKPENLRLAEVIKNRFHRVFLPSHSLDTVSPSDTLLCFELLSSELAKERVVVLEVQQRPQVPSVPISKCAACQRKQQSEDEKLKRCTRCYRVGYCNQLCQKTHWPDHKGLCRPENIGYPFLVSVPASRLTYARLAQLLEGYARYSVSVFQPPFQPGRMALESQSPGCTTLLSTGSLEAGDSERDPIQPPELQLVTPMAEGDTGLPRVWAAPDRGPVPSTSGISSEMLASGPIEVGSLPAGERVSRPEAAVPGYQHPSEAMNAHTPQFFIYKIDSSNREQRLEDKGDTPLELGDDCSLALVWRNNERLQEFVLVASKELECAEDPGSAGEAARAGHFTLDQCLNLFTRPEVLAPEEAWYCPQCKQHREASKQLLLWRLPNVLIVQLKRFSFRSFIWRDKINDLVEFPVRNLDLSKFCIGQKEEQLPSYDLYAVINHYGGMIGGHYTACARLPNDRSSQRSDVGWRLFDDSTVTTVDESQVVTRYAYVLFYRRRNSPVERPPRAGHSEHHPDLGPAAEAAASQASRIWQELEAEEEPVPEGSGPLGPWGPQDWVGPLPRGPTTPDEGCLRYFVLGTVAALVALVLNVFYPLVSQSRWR
Type: biochemical
Description: USP19 activity was determined in a fluorescence polarisation (FP) homogeneous assay using the isopeptide Ubiquitin-Lys-TAMRA substrate (either AUB-101, Almac Sciences Scotland Limited, or U-558, Boston Biochem, both of which gave identical results). Full-length USP19 was purchased from Boston Biochem (E-576). Unless otherwise stated, all other reagents were purchased from Sigma. Enzymatic reactions were conducted in black flat bottom polystyrene 384-well plates (Nunc) and 30 μL total volume. USP19 (2.5 nM, 10 μL) was incubated in assay buffer (50 mM HEPES (pH 7.4), 150 mM NaCl, 5 mM DTT, 0.05% BSA (w/v), 0.05% CHAPS) in the presence or absence of inhibitor (10 μL). Inhibitors were stored as 10 mM DMSO stocks in an inert environment (low humidity, dark, low oxygen, rt) using the StoragePod® system (Roylan Developments) and serial dilutions were prepared in buffer just prior to the assay (from 200 μM to 2 μM, 8-18 data point curve). Following incubation at RT for 30 min, the enzymatic reactions were initiated by dispensing the Ub substrate (500 nM, 10 μL). FP was measured every 15 min over a period of 90 min (within the linear range of the assay) using a Synergy 4 plate reader (BioTek) exciting at 530 nm and measuring the amount of parallel and perpendicular light at 575 nm. The FP signal was subsequently normalised to the no compound control. Data were plotted and fitted, and the concentrations resulting in 50% inhibition (IC50) were calculated using the non-linear regression curve fitting model using GraphPad (Prism). IC50 values for the inhibitors of the invention are compiled in Tables 1 and 3 and represent the average of at least two duplicate experiments.

pIC50 | Structure (SMILES)
> 8.00 | CN[C@@H]1CCN(C(=O)N2CC[C@@H](Cn3cnc(-c4ccccc4)cc3=O)C3(CCCC3)C2)[C@H](c2cccc(F)c2F)C1 [Example 132, 3-(((R)-7-((2S,4R)-2-(2,3-Difluorophenyl)-4-(methylamino)piperidine-1-carbonyl)-7-azaspiro[4.5]decan-10-yl)methyl)-6-phenylpyrimidin-4(3H)-one]
> 8.00 | CN[C@@H]1CCN(C(=O)N2CC[C@@H](Cn3cnc(C(F)F)cc3=O)C3(CCCC3)C2)[C@H](c2ccc(F)cc2F)C1 [Example 130, 6-(Difluoromethyl)-3-(((R)-7-((2S,4R)-2-(2,4-difluorophenyl)-4-(methylamino)piperidine-1-carbonyl)-7-azaspiro[4.5]decan-10-yl)methyl)pyrimidin-4(3H)-one]
> 8.00 | O=C(N1CC[C@@H](Cn2cnc(-c3ccccc3)cc2=O)C2(CCCC2)C1)N1CC[C@@H](NCc2ccccn2)C[C@H]1c1ccccc1 [Example 144, 6-Phenyl-3-(((R)-7-((2S,4R)-2-phenyl-4-((pyridin-2-ylmethyl)amino)piperidine-1-carbonyl)-7-azaspiro[4.5]decan-10-yl)methyl)pyrimidin-4(3H)-one]
4.70 to 6.00 | O=C(N1CC[C@H](Cn2ccc(-c3ccccc3)cc2=O)C2(CCCC2)C1)N1CCNC[C@H]1c1ccccc1 (single isomer, unassigned) [Example 15]
> 8.00 | CN[C@@H]1CCN(C(=O)N2CC[C@@H](Cn3cnc(-c4ccccc4OC)cc3=O)C3(CCCC3)C2)[C@H](c2ccc(F)cc2)C1 [Example 104, 3-(((R)-7-((2S,4R)-2-(4-Fluorophenyl)-4-(methylamino)piperidine-1-carbonyl)-7-azaspiro[4.5]decan-10-yl)methyl)-6-(2-methoxyphenyl)pyrimidin-4(3H)-one]
7.00 to 8.00 | O=C(N1CC[C@@H](Cn2ccc(-c3ccccc3)cc2=O)C2(CCCC2)C1)N1CC[C@@H](NC2CS(=O)(=O)C2)C[C@H]1c1ccccc1 [Example 50, 1-(((R)-7-((2S,4R)-4-((1,1-Dioxidothietan-3-yl)amino)-2-phenylpiperidine-1-carbonyl)-7-azaspiro[4.5]decan-10-yl)methyl)-4-phenylpyridin-2(1H)-one]
> 8.00 | Cc1cc(C)nc(CN[C@@H]2CCN(C(=O)N3CC[C@@H](Cn4cnc(-c5ccccc5)cc4=O)C4(CCCC4)C3)[C@H](c3ccccc3)C2)n1 [Example 194, 3-(((R)-7-((2S,4R)-4-(((4,6-Dimethylpyrimidin-2-yl)methyl)amino)-2-phenylpiperidine-1-carbonyl)-7-azaspiro[4.5]decan-10-yl)methyl)-6-phenylpyrimidin-4(3H)-one]
6.00 to 7.00 | O=C(O)[C@@H]1CCN(C(=O)N2CC[C@@H](Cn3cnc(-c4ccccc4)cc3=O)C3(CCCC3)C2)[C@H](c2ccccc2)C1 [Example 175, (2S,4R)-1-((R)-10-((6-oxo-4-phenylpyrimidin-1(6H)-yl)methyl)-7-azaspiro[4.5]decane-7-carbonyl)-2-phenylpiperidine-4-carboxylic acid]
> 8.00 | CN[C@@H]1CCN(C(=O)N2CC[C@@H](Cn3cnc(-c4ccccc4)cc3=O)C3(CCCC3)C2)[C@H](c2ccccc2)C1 [Example 56, 3-(((R)-7-((2S,4R)-4-(Methylamino)-2-phenylpiperidine-1-carbonyl)-7-azaspiro[4.5]decan-10-yl)methyl)-6-phenylpyrimidin-4(3H)-one]
7.00 to 8.00 | N[C@@H]1CCN(C(=O)N2CCC(Cn3ccc(-c4ccccc4)cc3=O)CC2)[C@H](c2ccccc2)C1 [Example 17, 1-((1-((2S,4R)-4-Amino-2-phenylpiperidine-1-carbonyl)piperidin-4-yl)methyl)-4-phenylpyridin-2(1H)-one]
> 8.00 | CC1(c2cc(=O)n(CC3CCN(C(=O)N4CC[C@@H](N)C[C@H]4c4ccccc4)CC34CCCC4)cn2)CC1 (stereo partly drawn) [Example 36, 3-((7-((2S,4R)-4-Amino-2-phenylpiperidine-1-carbonyl)-7-azaspiro[4.5]decan-10-yl)methyl)-6-(1-methylcyclopropyl) pyrimidin-4(3H)-one]
7.00 to 8.00 | CN(C)[C@@H]1CCN(C(=O)N2CC[C@@H](Cn3ccc(-c4ccccc4)cc3=O)C3(CCCC3)C2)[C@H](c2ccccc2)C1 [Example 46, 1-(((R)-7-((2S,4R)-4-(Dimethylamino)-2-phenylpiperidine-1-carbonyl)-7-azaspiro[4.5]decan-10-yl)methyl)-4-phenylpyridin-2(1H)-one]
> 8.00 | COc1ccccc1-c1cc(=O)n(C[C@]2(OC)CCN(C(=O)N3CC[C@@H](NC(C)C)C[C@H]3c3cc(F)ccc3F)CC23CCCC3)cn1 [Example 190, 3-(((S)-7-((2S,4R)-2-(2,5-Difluorophenyl)-4-(isopropylamino)piperidine-1-carbonyl)-10-methoxy-7-azaspiro[4.5]decan-10-yl)methyl)-6-(2-methoxyphenyl)pyrimidin-4(3H)-one]
> 8.00 | CN[C@@H]1CCN(C(=O)N2CC[C@@H](Cn3cnc(-c4ccccc4F)cc3=O)C3(CCCC3)C2)[C@H](c2cc(F)cc(F)c2)C1 [Example 143, 3-(((R)-7-((2S,4R)-2-(3,5-Difluorophenyl)-4-(methylamino)piperidine-1-carbonyl)-7-azaspiro[4.5]decan-10-yl)methyl)-6-(2-fluorophenyl)pyrimidin-4(3H)-one]
> 8.00 | COc1ccccc1-c1cc(=O)n(C[C@]2(OC)CCN(C(=O)N3CCNC[C@H]3c3cc(F)ccc3F)CC23CCCC3)cn1 [Example 187, 3-(((S)-7-((R)-2-(2,5-Difluorophenyl)piperazine-1-carbonyl)-10-methoxy-7-azaspiro[4.5]decan-10-yl)methyl)-6-(2-methoxyphenyl)pyrimidin-4(3H)-one]
> 8.00 | CN[C@@H]1CCN(C(=O)N2CC[C@@H](Cn3ccc(Cl)cc3=O)C3(CCCC3)C2)[C@H](c2ccccc2)C1 [Example 83, 4-Chloro-1-(((R)-7-((2S,4R)-4-(methylamino)-2-phenylpiperidine-1-carbonyl)-7-azaspiro[4.5]decan-10-yl)methyl)pyridin-2(1H)-one]
> 8.00 | CN[C@@H]1CCN(C(=O)N2CC[C@@H](Cn3cnc4ccc(F)cc4c3=O)C3(CCCC3)C2)[C@H](c2cccc(F)c2)C1 [Example 167, 6-Fluoro-3-(((R)-7-((2S,4R)-2-(3-fluorophenyl)-4-(methylamino)piperidine-1-carbonyl)-7-azaspiro[4.5]decan-10-yl)methyl)quinazolin-4(3H)-one]
> 8.00 | CCN[C@@H]1CCN(C(=O)N2CC[C@@H](Cn3ccc(-c4ccccc4)cc3=O)C3(CCCC3)C2)[C@H](c2cc(F)ccc2F)C1 [Example 180, 1-(((R)-7-((2S,4R)-2-(2,5-Difluorophenyl)-4-(ethylamino)piperidine-1-carbonyl)-7-azaspiro[4.5]decan-10-yl)methyl)-4-phenylpyridin-2(1H)-one]
> 8.00 | CN[C@@H]1CCN(C(=O)N2CC[C@@H](Cn3cnc(-c4ccccc4C)cc3=O)C3(CCCC3)C2)[C@H](c2cccc(F)c2F)C1 [Example 136, 3-(((R)-7-((2S,4R)-2-(2,3-Difluorophenyl)-4-(methylamino)piperidine-1-carbonyl)-7-azaspiro[4.5]decan-10-yl)methyl)-6-(0-tolyl)pyrimidin-4(3H)-one]
